Read-outs that look alike come from different tables or passages of the source.
Tested on: healthy adults
Set-up: species or system human
Conditions: in vivo
From the text: Study Overview and Ethics. The study used a randomized, placebo-controlled, single-ascending dose (SAD) and multiple-ascending dose (MAD) design (FIG. 2). […] Dose escalation was to be stopped when this range was achieved, or when a non-tolerated dose was identified, if earlier.
Participants and Treatments. To be eligible for this study, participants were to be healthy adults aged 18 to 55 years, with body mass index of 18.0 to 32.0 kg/m^2, normal electrocardiogram (ECG) and clinical laboratory values, or only minor abnormalities that were deemed not clinically significant. Participants also had to have normal cardiac structure and function, with LVEF ≥60% for the first 4 SAD cohorts, ≥65% for subsequent SAD cohorts, all MAD cohorts, and the food-effect cohort, and ≥55% for the CYP2D6-PM cohort. Before the study, participants were not allowed to use any prescription medication within 14 days, over-the-counter medication within 7 days (except acetaminophen), or tobacco or nicotine within 3 months; in addition, they were not permitted to consume alcohol, caffeine, or grapefruit within 48 h before study check-in.
A randomization schedule was centrally generated for each cohort and treatment period. […] Study drug was administered following an overnight fast, except during the fed period in the food-effect cohort.
Single-ascending dose (SAD) cohorts. The SAD portion of the study used a randomized, double-blind, placebo-controlled, sequential, escalating-dose design, in which participants received single-ascending oral doses of the study drug. Seven cohorts were dosed in sequence (FIG. 2).
Recommendations regarding dose escalation in the SAD cohorts—and in the MAD cohorts described below—were made by the treating investigator (who was blinded to treatment group) and endorsed or not by the Dose Level Review Committee (DLRC), who were unblinded. […] Criteria for escalation included that no more than 2 participants in a dose group developed an LVEF <50% and no individual developed an LVEF <45%.
Multiple-ascending dose (MAD) cohorts. The MAD cohorts also used a randomized, double-blind, placebo-controlled, sequential design.
CYP2D6 genotypes were determined at screening for all study participants; those identified as CYP2D6-PMs were excluded from the SAD and MAD cohorts but were invited to participate in the CYP2D6-PM cohort. The first individual in the CYP2D6-PM cohort was dosed after the SAD 25-mg cohort (FIG. 2). […] Nine participants were randomized (7:2) with a sentinel dosing group consisting of the first 2 participants treated.
Food-effect cohort. […] Participants were randomized in a 1:1 ratio to 1 of 2 sequences: fasted/fed or fed/fasted.
Safety and tolerability. Safety was assessed by the incidence of adverse events (AEs) and by incidence of reduced LVEF. Treatment-emergent AEs (TEAE) were defined as AEs that began or increased after study drug administration. All AEs were coded using the Medical Dictionary for Regulatory Activities version 21.1 and graded using the National Cancer Institute Common Terminology Criteria for AEs (version 4.03) 5-point severity scale. Each AE was judged as either related or unrelated to the study drug by the treating investigator. Clinical laboratory tests were obtained at regular intervals in all cohorts.
For safety monitoring, participants in all cohorts had periodic echocardiograms, which were assessed by a cardiologist. In the SAD and MAD cohorts, echocardiograms were also reviewed by an echocardiography core laboratory for PD assessments, as described below. In addition, participants in all cohorts were monitored with continuous 12-lead ECG recording using Holter monitors. For safety monitoring, a single 12-lead ECG was extracted at screening, pre-dose, and periodically throughout follow-up, and interpreted by the investigator. […]

What does the source list for `CCc1nc(-c2ccc3c(c2)CC[C@H]3NC(=O)c2cnn(C)c2)no1` [aficamten, (R)—N-(5-(5-ethyl-1,2,4-oxadiazol-3-yl)-2,3-dihydro-1H-inden-1-yl)-1-methyl-1H-pyrazole-4-carboxamide]?
Echocardiogram-related AE of decreased ejection fraction <45%: Onset (time after drug dose) (female, human): 1.4 h; QTcF (human): ≤ 450 ms; increase in QTcF interval (human): ≤ 30 ms; participants with echocardiogram-related AEs of decreased ejection fraction <45% (human): 3 participants; time to resolution of echocardiogram-related AEs of decreased ejection fraction (human): 2.5 to 4.6 h; LVEF of 1 participant after cohort expansion: < 45%; decrease in LVEF of 1 participant after cohort expansion: > 15%; discontinuation of the study due to AEs: no participants discontinued; mean safety ECG parameters: within normal limits; post-dose LVEF of sentinel participant: < 45%; post-dose LVEF of the participant with LVEF <50%: 46.2%; serum chemistry, hematology, or urinalysis findings: No clinically significant; vital signs: within normal limits; Echocardiogram-related AE of decreased ejection fraction <45%: Onset (time after drug dose) (male, human): 1.5 h

From patent US20240091203A1, “METHODS FOR TREATING NON-OBSTRUCTIVE HYPERTROPHIC CARDIOMYOPATHY” (Cytokinetics, Incorporated, priority 2022, published 2024)
